Results on 2 molecules are retold here after PMC11017246, “Discovery of GLPG2737, a Potent Type 2 Corrector of CFTR for the Treatment of Cystic Fibrosis in Combination with a Potentiator and a Type 1 Co-corrector” (Journal of Medicinal Chemistry, 2024).

Molecules are shown by their SMILES. Several values for one entry are separate records, joined by “and”; a condition that tells them apart may be missing. Identical values can stand only once. A value given as a limit tells only on which side of the number the result lay.

The nature of data set [1]: Plasma protein binding, human. The data set is classed as in vitro ADME. Particulars: for fraction unbound at 4 h, 5 μM: human, pH 7.4, human plasma, read-out: PPB % human (converted).
Data set [2] can be described thus: Hepatocyte stability, human. The data set is classed as in vitro ADME. Particulars: for CLint scaled at 1 μM: read-out: Hep CLint,u human. The protocol:
(§1) The hepatocyte stability assay was performed by incubation of test compound at 1 μM, 0.03% DMSO in modified Krebs–Henseleit buffer with suspension of pooled cryopreserved hepatocytes (BioIVT, Hicksville, NY, USA) from mouse, rat, dog, or human (BioIVT, Hicksville, NY, USA) at 0.5 million viable hepatocytes/mL. Before adding the hepatocytes (time zero) and after 10, 20, 45, 90, 120, and 180 min of incubation (n = 2) at 37 °C while gently shaking, the reaction was stopped and proteins were precipitated with an excess of acetonitrile containing an internal standard. The samples were mixed, centrifuged, and filtered, and the supernatant was analyzed by liquid chromatography–mass spectrometry/mass spectrometry (LC–MS/MS). The instrument responses (peak areas/IS peak areas) were referenced to the zero-time point samples (considered as 100%) in order to determine the percentage of compound remaining.

Another data set has as its target T1, ΔF508 CFTR (Homo sapiens, UniProt P13569, DEL508-508).
T1 construct: host or cells: CFBE41o- TetON cells, expression induced with doxycycline
The experiment in a line: TECC (transepithelial clamp circuit) in primary CF-derived HBE cells. Format: cell-based. The settings on record: for Emax / EC50: primary ΔF508 homozygous HBE cells, 24 h incubation, with GLPG2222; for Emax: read-out: TECC HBE with GLPG2222 % max activation; for EC50: read-out: TECC HBE with GLPG2222 EC50.

Data set [3] in a line: Hepatocyte stability, rat. Format: in vitro ADME. The settings on record: for CLint scaled at 1 μM: read-out: Hep CLint,u rat (converted). The protocol:
as §1

The nature of data set [4]: Plasma protein binding, rat. The data set is classed as in vitro ADME. The settings on record: pH 7.4, read-out: PPB % rat (converted). Summed up:
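Equilibrium dialysis of 5 μM compound (0.5% DMSO) in plasma against PBS pH 7.4 for 4 h at 37 °C with shaking. Both chambers were matrix-matched, protein-precipitated with acetonitrile and quantified by LC–MS/MS. The summed peak areas of both chambers were taken as 100% compound.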

A further data set deals with CYP3A4. The experiment in a line: CYP3A4 induction (mRNA) in human hepatocytes. The data set is classed as in vitro ADME. The settings on record: for CYP (3A4) mRNA induction, result in words: compared with positive control rifampicin. As for the experimental part: Cryopreserved human hepatocytes from a single donor were seeded at 0.1 × 10^6 cells/well. The next day, cells were dosed with test compound in assay medium (final test compound concentration 10 μM; final DMSO concentration 0.1%). Positive control inducer, rifampicin, for CYP3A4, was incubated alongside the test compound. Negative control wells were included where the test compound is replaced by vehicle solvent (0.1% DMSO in assay medium). Each test or control compound was dosed in triplicate at a single concentration (10 μM). The cells were exposed to the solutions for 72 h with fresh solution added every 24 h. For mRNA assessment, all media was removed from each of the wells, and the cells were washed once. The cells were lysed, and total RNA was then isolated from the hepatocyte lysates. Reverse transcription was performed, and quantitative PCR analysis was performed on the resulting cDNA, using gene-specific primer probe sets for CYP3A4 target cDNA and endogenous control. Samples were analyzed using an ABI 7900 HT real time PCR system. For mRNA assessment, relative fold mRNA expression was determined based on the threshold cycle (CT) data of target gene relative to endogenous control for each reaction and normalized to negative control using the 2-ΔΔCT method. Data were expressed as fold activation relative to the vehicle control and, as a percent, to the 10 μM rifampicin using the following formula: % of positive control = ((fold increase of the cpd relative to vehicle control – 1)/(fold increase of the rifampicin at 10 μM – 1)) × 100.

The mark [5] stands for this setting: pooled cryopreserved hepatocytes in suspension.

T1 sequence (P13569 with tags, fused parts or gaps DEL508-508): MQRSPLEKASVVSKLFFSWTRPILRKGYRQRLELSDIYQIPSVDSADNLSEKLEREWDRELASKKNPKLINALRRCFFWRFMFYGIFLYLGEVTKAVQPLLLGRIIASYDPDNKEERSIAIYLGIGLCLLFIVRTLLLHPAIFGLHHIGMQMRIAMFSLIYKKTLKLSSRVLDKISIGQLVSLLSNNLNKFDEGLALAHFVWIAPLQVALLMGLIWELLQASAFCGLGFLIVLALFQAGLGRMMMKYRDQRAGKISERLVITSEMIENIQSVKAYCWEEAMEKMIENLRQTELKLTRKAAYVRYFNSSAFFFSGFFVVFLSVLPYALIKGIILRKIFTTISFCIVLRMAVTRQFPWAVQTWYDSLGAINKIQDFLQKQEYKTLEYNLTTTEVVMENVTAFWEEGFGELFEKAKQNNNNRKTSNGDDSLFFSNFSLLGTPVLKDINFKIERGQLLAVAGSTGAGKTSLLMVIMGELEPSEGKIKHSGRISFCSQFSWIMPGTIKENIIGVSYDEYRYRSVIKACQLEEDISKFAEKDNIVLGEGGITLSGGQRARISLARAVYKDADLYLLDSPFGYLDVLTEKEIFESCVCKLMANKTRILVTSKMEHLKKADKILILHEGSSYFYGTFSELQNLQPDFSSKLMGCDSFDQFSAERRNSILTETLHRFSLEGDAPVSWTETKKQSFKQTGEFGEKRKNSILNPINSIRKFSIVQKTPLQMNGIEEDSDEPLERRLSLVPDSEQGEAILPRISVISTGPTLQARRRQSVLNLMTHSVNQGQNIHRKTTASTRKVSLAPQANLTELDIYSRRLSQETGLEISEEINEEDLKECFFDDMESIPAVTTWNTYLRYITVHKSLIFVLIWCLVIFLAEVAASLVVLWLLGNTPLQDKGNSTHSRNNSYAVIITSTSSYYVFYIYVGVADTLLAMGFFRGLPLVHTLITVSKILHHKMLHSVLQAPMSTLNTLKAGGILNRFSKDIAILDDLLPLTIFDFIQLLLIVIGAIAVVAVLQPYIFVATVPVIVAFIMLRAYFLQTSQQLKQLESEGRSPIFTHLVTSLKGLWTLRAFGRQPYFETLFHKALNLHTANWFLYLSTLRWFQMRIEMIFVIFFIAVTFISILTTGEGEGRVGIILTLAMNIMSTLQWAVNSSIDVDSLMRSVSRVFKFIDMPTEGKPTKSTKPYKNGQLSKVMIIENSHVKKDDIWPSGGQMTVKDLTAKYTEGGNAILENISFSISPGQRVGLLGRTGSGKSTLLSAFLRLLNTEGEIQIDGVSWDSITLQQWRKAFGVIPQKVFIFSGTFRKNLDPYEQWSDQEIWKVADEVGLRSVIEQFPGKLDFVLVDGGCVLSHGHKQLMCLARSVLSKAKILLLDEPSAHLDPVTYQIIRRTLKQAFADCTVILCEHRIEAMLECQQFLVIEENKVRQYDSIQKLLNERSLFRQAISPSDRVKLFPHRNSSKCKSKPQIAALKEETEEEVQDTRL

The EC50 is the concentration giving half of the maximal effect. On to `CN(C)S(=O)(=O)NC(=O)c1cc(N2CCC(N3CCOCC3)CC2)c2c(C3CCC3)nn(-c3ccc(F)cc3)c2n1` [Compound 51], for which the PPB % human in data set [1] (human plasma) was 99% and 98.7%. Also, the fraction unbound at 4 h, 5 μM in data set [1] (plasma) was 0.02; in data set [4], 0.015. Moreover, the CLint scaled at 1 μM in data set [2] (setting [5]) is below 11 mL/min/kg; in data set [3] (setting [5]), 49 mL/min/kg. The Emax on ΔF508 CFTR was 371%. On ΔF508 CFTR, the concentration giving a half-maximal response (EC50) was 67 nM. Besides, the “CYP induction @10 μM (mRNA) % rifampicin” value in the data set on CYP3A4 (data generated by AbbVie team) is 45%; in the data set on CYP3A4 (data generated by Galapagos), 24%. Besides, the “CYP (3A4) mRNA induction, result in words” value in the data set with CYP3A4 is listed as “demonstrated CYP mRNA induction”.

As to `COC1CCN(C2CCN(c3cc(C(=O)NS(=O)(=O)N(C)C)nc4c3c(C3CCC3)nn4-c3ccc(F)cc3)CC2)CC1` [Compound 52, 3-Cyclobutyl-N-(N,N-dimethylsulfamoyl)-1-(4-fluorophenyl)-4-(4-methoxy-[1,4′-bipiperidin]-1′-yl)-1H-pyrazolo[3,4-b]pyridine-6-carboxamide], the fraction unbound at 4 h, 5 μM in data set [1] (human plasma) was 0.02. Besides, in data set [2] (human hepatocytes), the “Hepatocyte stability: %LBF human” value came out at 22 %LBF and the CLint scaled at 1 μM is below 12.8 mL/min/kg. Besides, the “Hepatocyte stability: predicted hepCl human” value in data set [2] (human hepatocytes, 1 µM) is below 4.67 mL/min/kg. At ΔF508 CFTR (addition to the combination of potentiator GLPG1837 and C1 corrector 4), the “increase in F508del CFTR activity” value is 8 fold. For the same molecule, at ΔF508 CFTR, the Emax was 467% and the EC50 worked out at 47 nM. In addition, in data set [3] (rat hepatocytes), the “Hepatocyte stability: %LBF rat” value turned out to be 30 %LBF and the CLint scaled at 1 μM is 66.2 mL/min/kg. In addition, the “Hepatocyte stability: predicted hepCl rat” value in data set [3] (rat hepatocytes, 1 µM) was 25.5 mL/min/kg. Also, in data set [4] (rat), the fraction unbound at 4 h, 5 μM is 0.016. Besides, the “CYP induction @10 μM (mRNA) % rifampicin” value in the data set on CYP3A4 (data generated by AbbVie team) is given as 4%. Besides, the “CYP induction @10 μM (mRNA) % rifampicin” value in the data set on CYP3A4 (data generated by Galapagos) turned out to be 6%. For the same molecule, in the data set with CYP3A4, the “CYP (3A4) mRNA induction, result in words” value was “devoid of any CYP mRNA induction liability”.
